Format in all cases: biochemical
The target of test [1] is T1, GLTP (Homo sapiens, UniProt Q9NZD2).
T1 construct: 6xHis-SUMO (N, cleaved yes); made in house; host or cells: E. coli BL21 (DE3)-pLysS or -Star
T1 sequence (Q9NZD2 1-209): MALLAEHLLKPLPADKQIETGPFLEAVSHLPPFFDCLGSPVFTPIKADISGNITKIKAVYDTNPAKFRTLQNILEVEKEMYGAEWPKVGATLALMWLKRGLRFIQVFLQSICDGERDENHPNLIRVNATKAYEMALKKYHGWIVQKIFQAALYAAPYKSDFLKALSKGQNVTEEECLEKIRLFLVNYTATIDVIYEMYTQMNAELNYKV
Briefly: FRET lipid transfer control with DHPC in assay buffer, ethanol-injection donors and sonicated acceptors. To be noted: DHPC 352 μM and 672 μM in assay buffer; ethanol-injection donors, sonicated acceptors (5×). As for the experimental part:
Small phosphatidylcholine vesicles (25-40 nm diameters) have typically been used as model membranes to assess lipid inter-bilayer transfer because of the faster transfer rates compared to those obtained using larger vesicles. Different donor and acceptor combinations were tested involving either small vesicles and/or 0.5 q-value bicelle dilution vesicles (bd-vesicles) to determine which combination produced the fastest intermembrane transfer rates. […] When the donor vesicles were produced by sonication, sphingolipid transfer rates were markedly slowed regardless of whether the acceptors were bd-vesicles or sonicated vesicles. […] Thus, similar high assay sensitivity can be achieved using the bicelle-to-bicelle transfer conditions as for vesicle-to-vesicle transfer conditions. […]
(§1) Real-time intermembrane transfer rates of fluorescent sphingolipids were obtained by Förster resonance energy transfer (FRET) using a SPEX FluoroLog3 spectrofluorometer (Horiba Scientific, Ltd., Kyoto, Japan), with excitation and emission band passes of 2 nm and a stirred (˜100 rpm), temperature-controlled (25±0.1° C.) sample cuvette holder. […] Either sonicated POPC vesicles or b-d POPC/DHPC model membranes served as receiver (acceptor) model membranes, which produced minimal change in fluorescence signal when added in excess (Mattjus et al., 1999, Anal. Biochem. 268:297-304). […]

The target of test [2] is T2, ACD11 (Arabidopsis thaliana, UniProt O64587).
T2 construct: 6xHis-SUMO (N, cleaved yes); made in house; host or cells: E. coli BL21 (DE3)-pLysS or -Star
T2 sequence (O64587 1-206): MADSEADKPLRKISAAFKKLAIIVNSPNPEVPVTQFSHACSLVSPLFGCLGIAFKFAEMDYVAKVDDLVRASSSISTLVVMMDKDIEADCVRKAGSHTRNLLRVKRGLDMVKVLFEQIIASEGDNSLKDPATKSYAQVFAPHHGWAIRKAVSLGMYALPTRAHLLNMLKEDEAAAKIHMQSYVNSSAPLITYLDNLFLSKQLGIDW
Put plainly: Bicelle-dilution FRET lipid transfer assay, lipid specificity. To be noted: donor q=0.5, acceptor q=0.5. As for the experimental part:
(§2) For experiments requiring ˜10 kinetic assays, donor stock lipid mixtures (0.5 q-value) were prepared by combining POPC (0.39 μmol), BODIPY-15-SL (0.004 μmol), DiI-C18 (0.006 μmol) and DHPC (0.8 μmol) from stock solvent solutions of hexane/ethanol (9:1) or chloroform/methanol (8:2). Acceptor stock lipid mixtures (0.5 q-value) were prepared by combining POPC (2 μmol) and DHPC (4 μmol) from stock solvent solutions. Total solvent volume in the clean glass vials containing inverted conical bottoms was approximately 100 μl. For other q-value stocks, the amount of DHPC was adjusted accordingly. Dry films of the lipid mixtures were obtained using a stream of nitrogen to evaporate all solvent at room temperature. The dry lipid films were hydrated by adding 200 μl of assay buffer (10 mM potassium phosphate, pH 6.6, 150 mM NaCl, and 0.2% EDTA) and then vortexed vigorously for at least five minutes to achieve optical clarity. For stocks with q-values of 1 or 2, lipid mixtures were not only vortexed vigorously but also sonicated briefly (2 to 3 minutes). All stocks were equilibrated overnight at room temperature prior to use in the lipid transfer assay regardless of q-value [q-value for donors=(POPC+BODIPY-15-SL+DiIC18)/DHPC; q-value for acceptors=POPC/DHPC]. Immediately prior to use in the FRET lipid transfer assay, donor and acceptor stocks were centrifuged for 10 minutes at 13,000 rpm. The FRET lipid transfer assay as performed as follows: donor stock (20 μl) was diluted into a stirred temperature-controlled cuvette containing assay buffer an equilibrated for two minutes to ensure a stable signal response. Next, acceptor stock (20 μl was diluted into the stirred cuvette and equilibrated for four minutes prior to initiating sphingolipid transfer by adding lipid transfer protein (2 μg) to a final cuvette volume of 2.5 ml. The total lipid concentration was 288 μM for assays using a 5:1 acceptor-to-donor ratio and was higher when more acceptors were added to increase transfer equilibrium from the donors.
(§3) Real-time intermembrane transfer rates of fluorescent sphingolipids were obtained by Förster resonance energy transfer (FRET) using a SPEX FluoroLog3 spectrofluorometer (Horiba Scientific, Ltd., Kyoto, Japan), with excitation and emission band passes of 2 nm and a stirred (˜100 rpm), temperature-controlled (25±0.1° C.) sample cuvette holder. All fluorescent lipids were localized initially to the SL-source (donor) vesicles (formed by rapid ethanol injection or probe sonication) or SL-source (donor) b-d model membranes. Minimal BODIPY-lipid emission occurred upon excitation (460 nm) due to resonance energy transfer to nearby C18-DiI. Either sonicated POPC vesicles or b-d POPC/DHPC model membranes served as receiver (acceptor) model membranes, which produced minimal change in fluorescence signal when added in excess (Mattjus et al., 1999, Anal. Biochem. 268:297-304). The final receiver (acceptor) vesicle concentration in the FRET lipid transfer assay was ˜240 μM to 1440 μM, which was five-fold to 30-fold higher than the SL-source (donor) vesicle concentration. Protein addition triggered a sudden, hyperbolic increase in BODIPY emission intensity (503 nm) as FRET decreased due to protein transport of fluorescent glycolipids from SL-source (donor) vesicles to receiver (acceptor) vesicles, creating separation from nontransferable C18-DiI lipid, as the protein delivers the BODIPY-SL to the excess POPC receiver vesicles or POPC/DHPC bicelles. Addition of Tween-20 detergent after extended incubation provided a measure of maximum intensity achievable by “infinite” fluorophore separation.

The target of test [3] is T1, GLTP. The description is as above. To be noted: for transfer by GLTP between bd donors and acceptors: donor q=0.5, acceptor q=0.5. As for the experimental part:
as §2, §3

For test [4], the system named is GFP-CPTP. Put plainly: Bicelle-dilution FRET lipid transfer assay with HeLa cell lysate. To be noted: lysate of transfected HeLa cells, 10 μl aliquots; donor q=0.5, acceptor q=0.5. How it is done: (§4) FIG. 14. Bicelle-dilution-model-membrane-assay detection of transfer activity by GLTP and CPTP expressed in HeLa cells after transient transfection with GFP-GLTP or GFP-CPTP. Cells were disrupted by brief probe sonication (30 sec×2) on ice. Cell supernatants were recovered by benchtop centrifugation (5 min @ 12,000 rpm) at 4° C. and then 10 μl aliquots were assayed for LTP activity. (Donor: q=0.5; Acceptor: q=0.5).
(§5) HeLa cells were plated on 100-mm dishes and transfected with different vectors using Lipofectamine 2000 (Invitrogen, Carlsbad, Calif.). At 24 hours post-transfection, cells were harvested by trypsinization, washed with phosphate-buffered saline (PBS) by benchtop centrifugation and then suspended in PBS buffer (200 μl). Disruption of the HeLa cells was accomplished by brief probe sonication (2×30 seconds) on ice. Cell supernatants were recovered by benchtop centrifugation (5 minutes at 12,000 rpm) at 4° C. and 10 μl aliquots were assayed for SLTP activity using donor bicelle-dilution vesicles containing either Me4-BODIPY-GalCer or Me4-BODIPY-C1P along with C18-DiI.

Test [5] has as its system GFP-GLTP. The test is described as above. To be noted: lysate of transfected HeLa cells, 10 μl aliquots; donor q=0.5, acceptor q=0.5. How it is done:
as §4, §5

Test [6] has as its target T2, ACD11. Put plainly: Bicelle-dilution FRET assay, competitive inhibition of BODIPY-C1P transfer. To be noted: increasing concentrations in donor bd-vesicles; donor q=0.5, acceptor q=0.5.
Text: The C1P derivative, diethyl-C1P, can inhibit cytosolic phospholipase A2α (cPLA2α) activity when the C1P acyl chain is short—e.g., C2-diethyl-C1P. The inhibition of cPLA2α by C2-diethyl-C1P presumably occurs via interaction with the cPLA2α C2-domain, which contains a C1P binding site that activates cPLA2α by enhancing translocation to membranes. To date, no inhibitors of C1P transfer proteins (e.g., CPTP and ACD11) have been reported. The bicelle-dilution FRET assay was used to test whether C2-diethyl-C1P can inhibit the plant CPTP ortholog, ACD11. […]
as §1

“Also recorded” adds a separate entry of the source.

GFP-CPTP, sequence (Q5TA50 whole entry): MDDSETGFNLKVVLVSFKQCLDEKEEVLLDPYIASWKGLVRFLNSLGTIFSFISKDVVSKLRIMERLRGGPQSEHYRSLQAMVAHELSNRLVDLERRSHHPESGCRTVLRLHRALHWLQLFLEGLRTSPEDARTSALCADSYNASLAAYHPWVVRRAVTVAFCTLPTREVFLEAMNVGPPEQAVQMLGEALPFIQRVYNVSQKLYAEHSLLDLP

`CCCCCC(=O)OC[C@H](COP(=O)([O-])OCC[N+](C)(C)C)OC(=O)CCCCC` [DHPC, 1,2-hexanoyl-sn-glycero-3-phosphocholine]: in test [1], the “effect on GLTP transfer rate of Me4-BODIPY-GalCer” value was “Lack of significant effect; also recorded: Minimal affect”.
For “Me4-BODIPY-15-ceramide-1-phosphate [Me4-BODIPY C1P]”, the “transfer by ACD11 between bd donors and acceptors” value in test [2] is “specifically transfers”; in test [2] (listed as BODIPY-C1P), “transfer”. Besides, the “transfer by GLTP between bd donors and acceptors” value in test [3] is given as “not”. Also, the “bd-vesicle-to-bd-vesicle transfer by GFP-CPTP” value in test [4] is reported as “transfer”. For the same molecule, in test [5], the “bd-vesicle-to-bd-vesicle transfer by GFP-GLTP” value was “not”.
Take “Me4-BODIPY-15-galactosylceramide [Me4-BODIPY GalCer]”: the “transfer by ACD11 between bd donors and acceptors” value in test [2] is listed as “not”. For the same molecule, in test [3] (bicelle-dilution vesicles, 100% estimated by Tween-20 solubilization), the “transfer equilibrium by GLTP” value was roughly 70%. Moreover, the “transfer by GLTP between bd donors and acceptors” value in test [3] is recorded as “is detected”; in test [3] (listed as BODIPY-GalCer) it was “transfer”. In addition, the “bd-vesicle-to-bd-vesicle transfer by GFP-GLTP” value in test [5] is given as “transfer”.
On to ceramide-1-phosphate [C1P], for which the “competition effect on ACD11-mediated transfer rates of Me4-BODIPY C1P” value in test [6] is given as “Slowing of ACD11 transfer of BODIPY-C1P; also recorded: slow the inter-bicelles transfer rates”.

The values above are taken from patent publication US11740235B2, “Model-membrane-based lipid transfer assays and methods” (Regents of the University of Minnesota, priority 2019, dated 2023).
